Test results reported in patent publication US20260232767A1, “INTERLEUKIN-23 RECEPTOR ANTAGONIST PEPTIDES FOR USE IN THE TREATMENT OF PSORIASIS” (Janssen Pharmaceutica NV, priority 2023, published 2026).

Tested on: subjects with moderate-to-severe plaque psoriasis
Test: Safety, adverse events, Example 2 through Week 56
Format: in vivo, human
From the text: The LTE safety analysis was based on randomized participants in Example who entered the present long-term extension study and received at least one dose of study intervention (including a partial dose) during the study period.

[1] = 100 mg BID, Week 16 through Week 56
[2] = 100 mg BID, LTE Safety analysis set

With `CC(=O)NCCCC[C@@H]1NC(=O)[C@H](Cc2c[nH]c3c(C)cccc23)NC(=O)[C@H]([C@@H](C)O)NC(=O)[C@H](CC(N)=O)NC(=O)[C@@H](NC(C)=O)C(C)(C)SSC(C)(C)[C@@H](C(=O)N[C@@H](Cc2ccc(OCCN)cc2)C(=O)N[C@@H](Cc2ccc3ccccc3c2)C(=O)NC2(C(=O)N[C@@H](CCC(=O)O)C(=O)N[C@@H](CC(N)=O)C(=O)N[C@@H](Cc3cccnc3)C(=O)N(C)CC(N)=O)CCOCC2)NC1=O` [IL-23 receptor antagonist peptide, Ac-[Pen]*-N-T-[W(7-Me)]-[Lys(Ac)]-[Pen]*-Phe[4-(2-aminoethoxy)]-[2-Nal]-[THP]-E-N-[3-Pal]-Sarc-NH2 (*[Pen]-[Pen]* formdisulfidebond)] the “Renal mass: number of subjects” value (50 mg QD, through Week 56) was 0, the “Respiratory, thoracic and mediastinal disorders: % of subjects” value (50 mg QD, through Week 56) was “(4.7%)” and the “Respiratory, thoracic and mediastinal disorders: number of subjects” value (50 mg QD, through Week 56) was 2. The “Retinal vein occlusion: number of subjects” value (50 mg QD, through Week 56) was 0, the “Rhinorrhoea: number of subjects” value (50 mg QD, through Week 56) was 0 and the “Seasonal allergy: % of subjects” value (50 mg QD, through Week 56) was “(2.3%)”. For the same compound, the “Seasonal allergy: number of subjects” value (50 mg QD, through Week 56) was 1, the “Skin and subcutaneous tissue disorders: % of subjects” value (50 mg QD, through Week 56) was “(9.3%)” and the “Skin and subcutaneous tissue disorders: number of subjects” value (50 mg QD, through Week 56) was 4. The “Skin laceration: number of subjects” value (50 mg QD, through Week 56) was 0, the “Skin papilloma: % of subjects” value (50 mg QD, through Week 56) was “(2.3%)” and the “Skin papilloma: number of subjects” value (50 mg QD, through Week 56) was 1. For the same compound, the “Social circumstances: % of subjects” value (50 mg QD, through Week 56) was “(2.3%)”, the “Social circumstances: number of subjects” value (50 mg QD, through Week 56) was 1 and the “Steatohepatitis: number of subjects” value (50 mg QD, through Week 56) was 0. The “Subjects with AE leading to discontinuation: Abdominal discomfort” value (50 mg QD, through Week 56) was 0, the “Subjects with AE leading to discontinuation: Alanine aminotransferase increased” value (50 mg QD, through Week 56) was 0 and the “Subjects with AE leading to discontinuation: Aspartate aminotransferase increased” value (50 mg QD, through Week 56) was 0. For the same compound, the “Subjects with AE leading to discontinuation: Asthenia” value (50 mg QD, through Week 56) was 0, the “Subjects with AE leading to discontinuation: Chills” value (50 mg QD, through Week 56) was 0 and the “Subjects with AE leading to discontinuation: Ear and labyrinth disorders” value (50 mg QD, through Week 56) was 0. The “Subjects with AE leading to discontinuation: Gamma-glutamyltransferase increased” value (50 mg QD, through Week 56) was 0, the “Subjects with AE leading to discontinuation: General disorders and administration site conditions” value (50 mg QD, through Week 56) was 0 and the “Subjects with AE leading to discontinuation: Headache” value (50 mg QD, through Week 56) was 0. The “Subjects with AE leading to discontinuation: Insomnia” value (50 mg QD, through Week 56) was 0, the “Subjects with AE leading to discontinuation: Investigations” value (50 mg QD, through Week 56) was 0 and the “Subjects with AE leading to discontinuation: Nervous system disorders” value (50 mg QD, through Week 56) was 0. For the same compound, the “Subjects with AE leading to discontinuation: Proctalgia” value (50 mg QD, through Week 56) was 0, the “Subjects with AE leading to discontinuation: Psoriasis” value (50 mg QD, through Week 56) was 0 and the “Subjects with AE leading to discontinuation: Psychiatric disorders” value (50 mg QD, through Week 56) was 0. The “Subjects with AE leading to discontinuation: Skin and subcutaneous tissue disorders” value (50 mg QD, through Week 56) was 0, the “Subjects with AE leading to discontinuation: Suicide attempt” value (50 mg QD, through Week 56) was 0 and the “Subjects with AE leading to discontinuation: Transaminases increased” value (50 mg QD, through Week 56) was 0. For the same compound, the “Subjects with AE leading to discontinuation: Vertigo” value (50 mg QD, through Week 56) was 0, the “Subjects with AE leading to discontinuation: Vomiting” value (50 mg QD, through Week 56) was 0 and the “Subjects with AE leading to discontinuation: Weight increased” value (50 mg QD, through Week 56) was 0. The “Subjects with COVID-19 associated AE: SARS-CoV-2 test positive” value (50 mg QD, through Week 56) was 0, the “Subjects with treatment-emergent serious AE: COVID-19” value (50 mg QD, through Week 56) was 0 and the “Subjects with treatment-emergent serious AE: Cerebrovascular accident” value (50 mg QD, through Week 56) was 0. The “Subjects with treatment-emergent serious AE: Diverticulitis” value (50 mg QD, through Week 56) was 0, the “Subjects with treatment-emergent serious AE: Injury, poisoning and procedural complications” value (50 mg QD, through Week 56) was 0 and the “Subjects with treatment-emergent serious AE: Intervertebral disc protrusion” value (50 mg QD, through Week 56) was 0. The “Subjects with treatment-emergent serious AE: Ligament injury” value (50 mg QD, through Week 56) was 0, the “Subjects with treatment-emergent serious AE: Neoplasms benign, malignant and unspecified (incl cysts and polyps)” value (50 mg QD, through Week 56) was 0 and the “Subjects with treatment-emergent serious AE: Nervous system disorders” value (50 mg QD, through Week 56) was 0. The “Subjects with treatment-emergent serious AE: Psychiatric disorders” value (50 mg QD, through Week 56) was 0, the “Subjects with treatment-emergent serious AE: Respiratory, thoracic and mediastinal disorders” value (50 mg QD, through Week 56) was 0 and the “Subjects with treatment-emergent serious AE: Suicide attempt” value (50 mg QD, through Week 56) was 0. The “Subjects with treatment-emergent serious AE: Tonsillar hypertrophy” value (50 mg QD, through Week 56) was 0, the “Subjects with treatment-emergent serious AE: Uterine leiomyoma” value (50 mg QD, through Week 56) was 0 and the “Subjects with treatment-emergent serious AE: Ventricular dysfunction” value (50 mg QD, through Week 56) was 0. For the same compound, the “Suicide attempt: number of subjects” value (50 mg QD, through Week 56) was 0, the “Sunburn: number of subjects” value (50 mg QD, through Week 56) was 0 and the “Thrombocytopenia: number of subjects” value (50 mg QD, through Week 56) was 0. The “Thrombocytosis: number of subjects” value (50 mg QD, through Week 56) was 0, the “Tonsillar hypertrophy: number of subjects” value (50 mg QD, through Week 56) was 0 and the “Tooth fracture: number of subjects” value (50 mg QD, through Week 56) was 0. The “Type 2 diabetes mellitus: number of subjects” value (50 mg QD, through Week 56) was 0, the “Urinary tract disorder: number of subjects” value (50 mg QD, through Week 56) was 0 and the “Uterine leiomyoma: number of subjects” value (50 mg QD, through Week 56) was 0. For the same compound, the “Vascular disorders: % of subjects” value (50 mg QD, through Week 56) was “(2.3%)”, the “Vascular disorders: number of subjects” value (50 mg QD, through Week 56) was 1 and the “Ventricular dysfunction: number of subjects” value (50 mg QD, through Week 56) was 0. For the same compound, the “Vertigo: number of subjects” value (50 mg QD, through Week 56) was 0, the “Vitamin D deficiency: number of subjects” value (50 mg QD, through Week 56) was 0 and the “Number of subjects with treatment-emergent AE: Cholelithiasis” value [1] was 0. For the same compound, the “Number of subjects with treatment-emergent AE: Ear and labyrinth disorders” value [1] was 0, the “Number of subjects with treatment-emergent AE: Endocrine disorders” value [1] was 0 and the “Number of subjects with treatment-emergent AE: Eye disorders” value [1] was 0. For the same compound, the “Number of subjects with treatment-emergent AE: Eyelid skin dryness” value [1] was 0, the “Number of subjects with treatment-emergent AE: Goiter” value [1] was 0 and the “Number of subjects with treatment-emergent AE: Hepatobiliary disorders” value [1] was 0. The “Number of subjects with treatment-emergent AE: Hypertransaminasemia” value [1] was 0, the “Number of subjects with treatment-emergent AE: Immune system disorders” value [1] was 1 and the “Number of subjects with treatment-emergent AE: Insomnia” value [1] was 0. The “Number of subjects with treatment-emergent AE: Ocular cyst” value [1] was 0, the “Number of subjects with treatment-emergent AE: Psychiatric disorders” value [1] was 0 and the “Number of subjects with treatment-emergent AE: Retinal vein occlusion” value [1] was 0. For the same compound, the “Number of subjects with treatment-emergent AE: Seasonal allergy” value [1] was 1, the “Number of subjects with treatment-emergent AE: Vertigo” value [1] was 0 and the “Subjects with treatment-emergent AE: Immune system disorders (%)” value [1] was “(2.6%)”. The “Subjects with treatment-emergent AE: Seasonal allergy (%)” value [1] was “(2.6%)”, the “Subjects who discontinued study agent because of 1 or more adverse events” value [2] was 0 and the “Subjects with 1 or more Serious Infections and infestations” value [2] was 0. The “Subjects with adverse event: Arthralgia” value [2] was 0, the “Subjects with adverse event: Bronchitis” value [2] was 0 and the “Subjects with adverse event: Headache” value [2] was 0. The “Subjects with adverse event: Meniscus injury” value [2] was 0, the “Subjects with adverse event: Sinusitis” value [2] was 0 and the “Subjects with adverse event: Vomiting” value [2] was 0. The “Subjects with serious adverse event: Cerebrovascular accident” value [2] was 0, the “Subjects with serious adverse event: Coronary artery disease” value [2] was 0 and the “Subjects with serious adverse event: Diverticulitis” value [2] was 0. The “Subjects with serious adverse event: Foot deformity” value [2] was 0, the “Subjects with serious adverse event: Intervertebral disc protrusion” value [2] was 0 and the “Subjects with serious adverse event: Ligament injury” value [2] was 0. The “Subjects with serious adverse event: Non-cardiac chest pain” value [2] was 0, the “Subjects with serious adverse event: Tonsillar hypertrophy” value [2] was 0 and the “Subjects with serious adverse event: Ventricular dysfunction” value [2] was 0. For the same compound, the “Subjects with 1 or more treatment-emergent adverse events leading to discontinuation of study agent” value (100 mg BID, Week 16-56) was 0, the “Subjects with AE leading to discontinuation: Alanine aminotransferase increased” value (100 mg BID, Week 16-56) was 0 and the “Subjects with AE leading to discontinuation: Aspartate aminotransferase increased” value (100 mg BID, Week 16-56) was 0. For the same compound, the “Subjects with AE leading to discontinuation: Asthenia” value (100 mg BID, Week 16-56) was 0, the “Subjects with AE leading to discontinuation: Chills” value (100 mg BID, Week 16-56) was 0 and the “Subjects with AE leading to discontinuation: Ear and labyrinth disorders” value (100 mg BID, Week 16-56) was 0. The “Subjects with AE leading to discontinuation: Gamma-glutamyltransferase increased” value (100 mg BID, Week 16-56) was 0, the “Subjects with AE leading to discontinuation: Gastrointestinal disorders” value (100 mg BID, Week 16-56) was 0 and the “Subjects with AE leading to discontinuation: General disorders and administration site conditions” value (100 mg BID, Week 16-56) was 0. The “Subjects with AE leading to discontinuation: Headache” value (100 mg BID, Week 16-56) was 0, the “Subjects with AE leading to discontinuation: Insomnia” value (100 mg BID, Week 16-56) was 0 and the “Subjects with AE leading to discontinuation: Investigations” value (100 mg BID, Week 16-56) was 0. For the same compound, the “Subjects with AE leading to discontinuation: Nervous system disorders” value (100 mg BID, Week 16-56) was 0, the “Subjects with AE leading to discontinuation: Proctalgia” value (100 mg BID, Week 16-56) was 0 and the “Subjects with AE leading to discontinuation: Psoriasis” value (100 mg BID, Week 16-56) was 0. The “Subjects with AE leading to discontinuation: Psychiatric disorders” value (100 mg BID, Week 16-56) was 0, the “Subjects with AE leading to discontinuation: Skin and subcutaneous tissue disorders” value (100 mg BID, Week 16-56) was 0 and the “Subjects with AE leading to discontinuation: Vertigo” value (100 mg BID, Week 16-56) was 0. For the same compound, the “Subjects with AE leading to discontinuation: Vomiting” value (100 mg BID, Week 16-56) was 0, the “Subjects with treatment-emergent AE: Arthralgia” value (100 mg BID, Week 16-56) was 0 and the “Subjects with treatment-emergent AE: Bronchitis” value (100 mg BID, Week 16-56) was 0. For the same compound, the “Subjects with treatment-emergent AE: Gastrointestinal disorders” value (100 mg BID, Week 16-56) was 0.
